This is an account of results in patent US5744121A (priority 1996, dated 1998).

Like-named read-outs stand apart in the source and are kept apart here. Some results are limits rather than exact numbers.

Data set [1] relates to 5-HT1A receptor (rat hippocampal membranes). The following applies: cited from earlier work.
For data set [2], the target named is T1, 5-HT1A receptor (rat hippocampal homogenates) (Rattus norvegicus, UniProt P19327).
T1 construct: in rat hippocampal membrane preparations; from tissue; host or cells: rat hippocampus (membrane preparations / tissue homogenates)
T1 sequence (P19327 1-422): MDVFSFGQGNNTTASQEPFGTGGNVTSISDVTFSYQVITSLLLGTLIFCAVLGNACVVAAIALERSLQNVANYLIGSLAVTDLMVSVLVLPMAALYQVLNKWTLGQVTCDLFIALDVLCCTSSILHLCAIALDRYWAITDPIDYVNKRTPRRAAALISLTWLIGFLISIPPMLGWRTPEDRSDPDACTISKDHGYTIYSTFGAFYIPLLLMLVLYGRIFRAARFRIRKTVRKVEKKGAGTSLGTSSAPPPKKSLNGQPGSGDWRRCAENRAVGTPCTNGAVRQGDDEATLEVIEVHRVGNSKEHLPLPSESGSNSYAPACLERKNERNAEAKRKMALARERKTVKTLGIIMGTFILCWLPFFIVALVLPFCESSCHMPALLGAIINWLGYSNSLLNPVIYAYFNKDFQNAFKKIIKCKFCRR
Put plainly: Inhibition of [^125 I]-p-MPP binding to rat hippocampal homogenates.

Data set [3] has as its target T2, 5-HT1A receptor (rat hippocampus tissue homogenates) (Rattus norvegicus, UniProt P19327).
T2 construct: in rat hippocampal membrane preparations; from tissue; host or cells: rat hippocampus (membrane preparations / tissue homogenates)
T2 sequence (P19327 1-422): T1 sequence (P19327 1-422)
In words: Saturation binding of [^125 I]p-MPPI to rat hippocampus tissue homogenates.

The target of data set [4] is T1, 5-HT1A receptor (rat hippocampal homogenates). Put plainly: Inhibition of [^125 I]-8-OH-PIPAT binding to rat hippocampal homogenates. The following applies: ligand [^125 I]-8-OH-PIPAT. An excerpt:
The 5-HT1A binding affinity of p-, m-, o- MPPI, p-fluoro- and p-nitro-MPP derivatives (1a-f) in rat hippocampal membrane preparations with [^123 ]

Data set [5] can be described thus: Regional brain distribution in rats after iv injection. In kind it is in vivo, Male Sprague-Dawley rats. The settings on record: rat; for tissue uptake at 0.05 h: 3 min; for tissue uptake at 2 h: 120 min.
Method: While the rats were under ether anesthesia, 0.2 mL of a saline solution containing [^123 I]1a and 1b (8-10 μCi) was injected directly into the femoral vein, and rats were sacrificed at various time points postinjection by cardiac excision under ether anesthesia. The organs of interest were removed and weighed and the radioactivity was counted with a Packard garnma automatic counter (Model 5000). The percentage dose per organ was calculated by a comparison of the tissue counts to suitably diluted aliquots of the injected material. Total activities of blood and muscle were calculated under the assumption that they were 7% and 40% of the total body weight, respectively.
By dissecting, weighing and counting samples from different brain regions (cortex, striatum, hippocampus, hypothalamus and cerebellum), the percentage dose/gram of the sample was calculated by comparing the sample counts with the count of the diluted initial dose.
A short description of data set [6]: Biodistribution in rats after iv injection. In kind it is in vivo, Male Sprague-Dawley rats. The following applies: average of 3 rats ± SD. As to the method:
Male Sprague-Dawley rats (225-300 g), allowed free access to food and water, were used for an in vivo biodistribution study. While the rats were under ether anesthesia, 0.2 mL of a saline solution containing [^123 I]1a and 1b (8-10 μCi) was injected directly into the femoral vein, and rats were sacrificed at various time points postinjection by cardiac excision under ether anesthesia. The organs of interest were removed and weighed and the radioactivity was counted with a Packard […] automatic counter (Model 5000). The percentage dose per organ was calculated by a comparison of the tissue counts to suitably diluted aliquots of the injected material.

The next data set relates to 5-HT1A receptor. Put plainly: Blocking studies: regional brain uptake ratios in rats. It is filed as in vivo. The settings on record: pretreated rats, 30 min post iv injection of tracer. As for the experimental part:
In order to further characterize the in vivo brain uptake of 1a in rats, blocking studies were carried out to determine changes of the ratios of regional brain uptake. […] Ratios for each region were calculated based on the % dose/gram of each region divided by the same in CB. […] (HP: hippocampus; CB: cerebellum; HY: hypothalamus; CX: cortex; ST: striatum).

Data set [7] can be described thus: Stability of the radiolabelled product on storage. It is filed as physicochemical. The following applies: -20° C., at least four weeks, HPLC; 40320 min.
[8] abbreviates: ligand [^125 I]-p-MPP, rat hippocampal homogenates, read-out: Ki.
[9] abbreviates: cerebellum, iv, rats (Table IV), read-out: Regional distribution, cerebellum.
The mark [10] stands for this setting: cortex, iv, rats (Table IV), read-out: Regional distribution, cortex.
The mark [11] stands for this setting: hippocampus, iv, rats (Table IV), read-out: Regional distribution, hippocampus.
Setting [12] is: hypothalamus, iv, rats (Table IV), read-out: Regional distribution, hypothalamus.
[13] abbreviates: striatum, iv, rats (Table IV), read-out: Regional distribution, striatum.

Turning to `COc1ccccc1N1CCN(C[C@@H](C(=O)NC(C)(C)C)c2ccccc2)CC1` [(5)-WAY 100135, N-tert-butyl-3-(4-(-2-methoxyphenyl)piperazin-1-yl)-2-phenylpropionamide], the selectivity entry in data set [1] (5-HT1A receptor) is “selective antagonist at both somatodendritic and postsynaptic receptor”. Moreover, in data set [1] (rat hippocampal membranes), the IC50 (in general, the concentration needed to halve the response being measured) is 15 nM.

`O=C(CCCN1CCC2(CC1)C(=O)NCN2c1ccccc1)c1ccc(F)cc1` [spiperone]: the Ki (usually the equilibrium dissociation constant of an inhibitor or competing ligand from its target) in data set [2] (setting [8]) stood at 12.2 ± 2.2 nM.

As to `COc1ccccc1N1CCN(CCN(C(=O)c2ccc([125I])cc2)c2ccccn2)CC1` [[^125 I]-MPPI], the Bmax in data set [3] (37° C., 15 min, 50 mM Tris-HCl pH 7.4, 2 mM MgCl2, 10 μM 5-HT for nonspecific binding) was 264 fmol/mg of protein. For the same molecule, the Kd (commonly the concentration at which binding is half-saturated) in data set [3] (37° C., 15 min, 50 mM Tris-HCl pH 7.4, 2 mM MgCl2, 10 μM 5-HT for nonspecific binding, read-out: Kd (FIG. 1)) is 0.36 nM; in data set [3] (rat hippocampal homogenates, Kung, Unpublished data, read-out: Kd (Table I footnote)) it was 0.3 nM.

Take `COc1ccccc1N1CCN(CCN(C(=O)c2ccc(F)cc2)c2ccccn2)CC1` [Compound 1d]: the Ki in data set [4] worked out at 3.3 ± 0.8 nM.

Take `COc1ccccc1N1CCN(CCN(C(=O)c2cccc([123I])c2)c2ccccn2)CC1` [[^123 I] 1b]: the tissue uptake at 2 min in data set [5] (setting [9]) was 0.47 ± 0.01 %ID/g; in data set [5] (setting [10]), 0.5 ± 0.03 %ID/g; in data set [5] (setting [11]), 0.54 ± 0.03 %ID/g; in data set [5] (setting [12]) it was 0.5 ± 0.04 %ID/g; in data set [5] (setting [13]), 0.51 ± 0.003 %ID/g. In addition, the tissue uptake at 0.05 h is 0.039 ± 0.003 %ID/g in data set [5] (setting [9]); 0.043 ± 0.002 %ID/g in data set [5] (setting [10]); 0.051 ± 0.005 %ID/g in data set [5] (setting [11]); 0.042 ± 0.003 %ID/g in data set [5] (setting [12]); 0.042 ± 0.004 %ID/g in data set [5] (setting [13]). Besides, the tissue uptake at 1 h in data set [5] (cerebellum, 60 min, iv, rats (Table IV), read-out: Regional distribution, cerebellum) worked out at 0.014 ± 0.004 %ID/g; in data set [5] (cortex, 60 min, iv, rats (Table IV), read-out: Regional distribution, cortex), 0.015 ± 0.005 %ID/g; in data set [5] (hippocampus, 60 min, iv, rats (Table IV), read-out: Regional distribution, hippocampus), 0.013 ± 0.004 %ID/g; in data set [5] (hypothalamus, 60 min, iv, rats (Table IV), read-out: Regional distribution, hypothalamus) it was 0.015 ± 0.005 %ID/g; in data set [5] (striatum, 60 min, iv, rats (Table IV), read-out: Regional distribution, striatum), 0.012 ± 0.003 %ID/g. The tissue uptake at 2 h in data set [5] (setting [9]) was 0.008 ± 0.0004 %ID/g; in data set [5] (setting [10]) it was 0.008 ± 0.0008 %ID/g; in data set [5] (setting [11]), 0.006 ± 0.001 %ID/g; in data set [5] (setting [12]), 0.01 ± 0.002 %ID/g; in data set [5] (setting [13]), 0.006 ± 0.0008 %ID/g. The Blood uptake in data set [6] (2 min) is recorded as 5.06 ± 0.32 % dose/organ; in data set [6] (30 min) it was 2.27 ± 0.24 % dose/organ; in data set [6] (60 min), 1.21 ± 0.08 % dose/organ; in data set [6] (120 min) it was 1.08 ± 0.13 % dose/organ. Besides, the Brain uptake was determined as 0.76 ± 0.05 % dose/organ in data set [6] (2 min), 0.07 ± 0.004 % dose/organ in data set [6] (30 min), 0.02 ± 0.006 % dose/organ in data set [6] (60 min) and 0.016 ± 0.0005 % dose/organ in data set [6] (120 min). The Heart uptake is 0.77 ± 0.08 % dose/organ in data set [6] (2 min), 0.11 ± 0.008 % dose/organ in data set [6] (30 min), 0.05 ± 0.005 % dose/organ in data set [6] (60 min) and 0.03 ± 0.003 % dose/organ in data set [6] (120 min). In addition, the Kidney uptake came to 3.67 ± 0.22 % dose/organ in data set [6] (2 min), 1.18 ± 0.11 % dose/organ in data set [6] (30 min), 0.54 ± 0.007 % dose/organ in data set [6] (60 min) and 0.36 ± 0.008 % dose/organ in data set [6] (120 min). Also, the Liver uptake is reported as 25.72 ± 3.29 % dose/organ in data set [6] (2 min), 8.04 ± 0.63 % dose/organ in data set [6] (30 min), 4.58 ± 0.30 % dose/organ in data set [6] (60 min) and 4.13 ± 0.44 % dose/organ in data set [6] (120 min). Also, the Lung uptake came out at 1.87 ± 0.08 % dose/organ in data set [6] (2 min), 0.31 ± 0.004 % dose/organ in data set [6] (30 min), 0.13 ± 0.02 % dose/organ in data set [6] (60 min) and 0.10 ± 0.004 % dose/organ in data set [6] (120 min). Moreover, the Muscle uptake in data set [6] (2 min) turned out to be 14.98 ± 1.16 % dose/organ; in data set [6] (30 min) it was 10.13 ± 4.90 % dose/organ; in data set [6] (60 min) it was 4.75 ± 1.76 % dose/organ; in data set [6] (120 min), 5.56 ± 3.54 % dose/organ. The Skin uptake in data set [6] (2 min) amounted to 10.16 ± 3.32 % dose/organ; in data set [6] (30 min), 13.71 ± 0.52 % dose/organ; in data set [6] (60 min) it was 5.85 ± 1.99 % dose/organ; in data set [6] (120 min) it was 3.66 ± 0.68 % dose/organ. The Spleen uptake came out at 0.68 ± 0.12 % dose/organ in data set [6] (2 min), 0.09 ± 0.01 % dose/organ in data set [6] (30 min), 0.04 ± 0.006 % dose/organ in data set [6] (60 min) and 0.029 ± 0.002 % dose/organ in data set [6] (120 min). Moreover, the Thyroid uptake is recorded as 0.07 ± 0.02 % dose/organ in data set [6] (2 min), 0.06 ± 0.02 % dose/organ in data set [6] (30 min), 0.05 ± 0.02 % dose/organ in data set [6] (60 min) and 0.11 ± 0.07 % dose/organ in data set [6] (120 min).

Consider `CCCN(CCC)C1CCc2cccc(O)c2C1` (racemic) [(± 8-OH-DPAT), 8-hydroxy-2-(N,N-di-n-propyl)aminotetralin, reference compound], for which the “specific uptake of [^123 I] or [^125 I]1a in the hippocampus after pretreatment” value in the data set with 5-HT1A receptor is listed as “mark decrease”.

`O=C(c1ccc(F)cc1)C1CCN(CCn2c(=O)[nH]c3ccccc3c2=O)CC1` [hetanserin]: affinity in data set [2] was put at a Ki of 1970 ± 98 nM.

Consider `COc1cccc(OC)c1OCCNCC1COc2ccccc2O1` (stereo not shown) [WB 4101], for which, in data set [2] (setting [8]), the Ki is 5 ± 0.5 nM.

As for `COc1ccccc1N1CCN(CCN(C(=O)c2cccc(I)c2)c2ccccn2)CC1` [Compound 1b, 4-(2'-methoxy)phenyl-1-[2"-(N-2"-pyridinyl)-m-iodobenzamido]ethyl piperazine], the purity on storage in data set [7] is reported as greater than 95%. Moreover, the tissue uptake at 1 h in data set [5] (hippocampus, 60 minutes after iv injection, ^123 I labeled, read-out: Uptake in hippocampal tissue) worked out at 0.013 %ID/g. Also, the Ki is 2.46 ± 0.14 nM in data set [2] (setting [8]) and 1.7 ± 0.1 nM in data set [4]. In addition, the Brain uptake in data set [6] (2 min) is on record as 0.76 % dose/organ.

With `COc1ccccc1N1CCN(CCN(C(=O)c2ccc(I)cc2)c2ncccn2)CC1` [Compound 1g, 4(2'-methoxy)phenyl-1-[2'-(N-2"-pyrimidinyl)-p-iodobenzamido] ethy piperazine], in data set [4], affinity was put at a Ki of 6.08 ± 0.8 nM.
